Results published in patent US20220088016A1, “CANCER TREATMENT USING MULTI-TARGETED KINASE INHIBITOR IN COMBINATION OF PROTEIN KINASE BIOMARKERS” (ZHEJIANG CROWNMAB BIOTECH CO. LTD., priority 2019, published 2022).

Assays:
Test in all cases: Kinase profiling
Format in all cases: binding
Conditions in all cases: read-out: % Ctrl @ 1000 nM
LATS2 = LATS2 (Homo sapiens, UniProt Q9NRM7)
PLK1 = PLK1 (Homo sapiens, UniProt P53350)
CDK7 = CDK7 (Homo sapiens, UniProt P50613)
CSNK1G3 = CSNK1G3 (Homo sapiens, UniProt Q9Y6M4)
Sequence of CSNK1G3 (Q9Y6M4 whole entry): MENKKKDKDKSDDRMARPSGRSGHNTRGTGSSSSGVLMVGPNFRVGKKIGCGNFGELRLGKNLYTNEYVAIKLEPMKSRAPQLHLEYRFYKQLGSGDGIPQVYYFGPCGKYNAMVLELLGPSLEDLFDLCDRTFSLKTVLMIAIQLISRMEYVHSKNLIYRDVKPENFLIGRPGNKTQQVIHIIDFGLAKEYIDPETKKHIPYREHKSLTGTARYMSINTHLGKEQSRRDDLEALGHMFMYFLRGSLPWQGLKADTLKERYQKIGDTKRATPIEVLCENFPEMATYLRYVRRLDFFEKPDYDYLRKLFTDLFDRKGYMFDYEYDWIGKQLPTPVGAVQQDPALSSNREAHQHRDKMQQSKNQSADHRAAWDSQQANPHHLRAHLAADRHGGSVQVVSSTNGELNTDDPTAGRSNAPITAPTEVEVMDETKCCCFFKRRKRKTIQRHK

STK33 = STK33 (Homo sapiens, UniProt Q9BYT3)
AMPK-alpha1 = AMPK-alpha1 (Homo sapiens, UniProt Q13131)
Sequence of AMPK-alpha1 (Q13131 whole entry): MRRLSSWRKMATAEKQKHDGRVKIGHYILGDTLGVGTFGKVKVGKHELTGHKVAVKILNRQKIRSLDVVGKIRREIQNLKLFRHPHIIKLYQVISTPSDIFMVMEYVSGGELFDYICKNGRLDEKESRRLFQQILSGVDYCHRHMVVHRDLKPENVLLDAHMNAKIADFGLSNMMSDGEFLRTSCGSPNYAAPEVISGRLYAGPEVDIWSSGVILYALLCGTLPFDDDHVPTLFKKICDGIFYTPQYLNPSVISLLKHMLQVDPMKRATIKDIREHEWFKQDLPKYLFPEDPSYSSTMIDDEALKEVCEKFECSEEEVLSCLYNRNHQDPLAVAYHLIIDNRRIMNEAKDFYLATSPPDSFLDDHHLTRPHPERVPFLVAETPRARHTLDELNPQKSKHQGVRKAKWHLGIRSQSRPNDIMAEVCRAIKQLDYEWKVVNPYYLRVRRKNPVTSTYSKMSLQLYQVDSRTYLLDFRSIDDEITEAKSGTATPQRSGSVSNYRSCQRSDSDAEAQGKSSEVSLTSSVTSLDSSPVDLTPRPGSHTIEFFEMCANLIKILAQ

LRRK2 = LRRK2 (Homo sapiens, UniProt Q5S007)
Sequence of LRRK2 (Q5S007 whole entry): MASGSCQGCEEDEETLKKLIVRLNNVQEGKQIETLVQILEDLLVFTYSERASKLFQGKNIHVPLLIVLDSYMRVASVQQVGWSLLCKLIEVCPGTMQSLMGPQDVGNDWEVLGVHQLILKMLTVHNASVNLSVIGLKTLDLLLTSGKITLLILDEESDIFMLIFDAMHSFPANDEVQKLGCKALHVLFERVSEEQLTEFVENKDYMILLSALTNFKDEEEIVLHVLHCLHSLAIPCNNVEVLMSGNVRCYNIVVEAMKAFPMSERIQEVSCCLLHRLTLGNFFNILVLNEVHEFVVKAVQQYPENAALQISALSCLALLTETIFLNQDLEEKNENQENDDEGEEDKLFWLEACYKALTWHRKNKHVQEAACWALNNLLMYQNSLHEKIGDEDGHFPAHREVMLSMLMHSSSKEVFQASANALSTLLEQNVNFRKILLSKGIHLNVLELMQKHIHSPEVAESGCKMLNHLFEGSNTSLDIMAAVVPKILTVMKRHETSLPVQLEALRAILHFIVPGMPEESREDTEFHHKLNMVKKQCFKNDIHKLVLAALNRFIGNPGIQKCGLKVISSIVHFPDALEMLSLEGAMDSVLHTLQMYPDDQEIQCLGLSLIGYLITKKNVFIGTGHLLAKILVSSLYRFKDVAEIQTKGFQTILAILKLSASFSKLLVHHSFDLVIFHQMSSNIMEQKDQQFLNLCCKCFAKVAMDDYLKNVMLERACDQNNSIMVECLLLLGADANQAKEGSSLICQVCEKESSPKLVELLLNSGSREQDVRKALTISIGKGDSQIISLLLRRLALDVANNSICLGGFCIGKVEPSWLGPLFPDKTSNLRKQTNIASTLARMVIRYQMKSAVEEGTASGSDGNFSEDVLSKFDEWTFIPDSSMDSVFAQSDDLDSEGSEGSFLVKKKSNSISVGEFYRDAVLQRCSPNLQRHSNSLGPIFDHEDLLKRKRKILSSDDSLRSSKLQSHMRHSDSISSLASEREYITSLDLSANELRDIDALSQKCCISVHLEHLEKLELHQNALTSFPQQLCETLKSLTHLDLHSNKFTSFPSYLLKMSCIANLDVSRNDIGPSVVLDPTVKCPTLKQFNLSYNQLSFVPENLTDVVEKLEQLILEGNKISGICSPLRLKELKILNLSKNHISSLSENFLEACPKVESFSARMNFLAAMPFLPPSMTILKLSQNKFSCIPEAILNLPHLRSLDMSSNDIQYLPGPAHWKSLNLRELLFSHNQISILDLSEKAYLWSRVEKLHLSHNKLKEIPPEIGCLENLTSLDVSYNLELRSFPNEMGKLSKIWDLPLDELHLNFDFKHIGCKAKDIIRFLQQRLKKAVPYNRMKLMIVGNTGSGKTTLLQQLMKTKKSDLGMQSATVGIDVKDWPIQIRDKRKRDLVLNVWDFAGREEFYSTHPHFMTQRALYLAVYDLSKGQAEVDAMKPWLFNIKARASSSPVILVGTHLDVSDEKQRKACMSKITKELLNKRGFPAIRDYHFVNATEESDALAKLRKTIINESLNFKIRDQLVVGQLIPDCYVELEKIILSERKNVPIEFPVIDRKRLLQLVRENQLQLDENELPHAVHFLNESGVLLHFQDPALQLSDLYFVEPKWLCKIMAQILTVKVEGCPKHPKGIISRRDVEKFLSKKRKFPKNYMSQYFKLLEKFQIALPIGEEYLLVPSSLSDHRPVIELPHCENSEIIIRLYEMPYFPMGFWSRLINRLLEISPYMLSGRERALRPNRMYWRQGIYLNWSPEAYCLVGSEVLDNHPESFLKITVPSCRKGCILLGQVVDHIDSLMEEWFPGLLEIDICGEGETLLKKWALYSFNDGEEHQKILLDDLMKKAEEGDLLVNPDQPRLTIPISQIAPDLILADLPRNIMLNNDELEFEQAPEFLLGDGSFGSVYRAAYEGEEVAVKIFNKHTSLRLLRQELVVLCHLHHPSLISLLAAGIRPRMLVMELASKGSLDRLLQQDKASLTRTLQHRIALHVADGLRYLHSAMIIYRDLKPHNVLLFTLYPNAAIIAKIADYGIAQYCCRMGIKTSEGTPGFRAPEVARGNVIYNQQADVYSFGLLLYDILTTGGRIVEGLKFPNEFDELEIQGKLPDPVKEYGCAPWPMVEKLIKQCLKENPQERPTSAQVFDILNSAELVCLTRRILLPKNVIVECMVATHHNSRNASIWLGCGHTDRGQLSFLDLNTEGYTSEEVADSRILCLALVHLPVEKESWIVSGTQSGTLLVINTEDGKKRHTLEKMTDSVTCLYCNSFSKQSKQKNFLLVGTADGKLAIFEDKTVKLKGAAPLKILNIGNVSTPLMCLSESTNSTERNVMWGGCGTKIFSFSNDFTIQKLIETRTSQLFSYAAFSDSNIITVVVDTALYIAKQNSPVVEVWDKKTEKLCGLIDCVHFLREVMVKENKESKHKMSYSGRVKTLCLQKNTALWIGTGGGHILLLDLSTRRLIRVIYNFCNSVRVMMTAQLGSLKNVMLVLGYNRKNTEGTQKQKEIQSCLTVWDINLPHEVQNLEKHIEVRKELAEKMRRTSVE

ASK2 = ASK2 (Homo sapiens, UniProt O95382)
RIPK4 = RIPK4 (Homo sapiens, UniProt P57078)
Sequence of RIPK4 (P57078 whole entry): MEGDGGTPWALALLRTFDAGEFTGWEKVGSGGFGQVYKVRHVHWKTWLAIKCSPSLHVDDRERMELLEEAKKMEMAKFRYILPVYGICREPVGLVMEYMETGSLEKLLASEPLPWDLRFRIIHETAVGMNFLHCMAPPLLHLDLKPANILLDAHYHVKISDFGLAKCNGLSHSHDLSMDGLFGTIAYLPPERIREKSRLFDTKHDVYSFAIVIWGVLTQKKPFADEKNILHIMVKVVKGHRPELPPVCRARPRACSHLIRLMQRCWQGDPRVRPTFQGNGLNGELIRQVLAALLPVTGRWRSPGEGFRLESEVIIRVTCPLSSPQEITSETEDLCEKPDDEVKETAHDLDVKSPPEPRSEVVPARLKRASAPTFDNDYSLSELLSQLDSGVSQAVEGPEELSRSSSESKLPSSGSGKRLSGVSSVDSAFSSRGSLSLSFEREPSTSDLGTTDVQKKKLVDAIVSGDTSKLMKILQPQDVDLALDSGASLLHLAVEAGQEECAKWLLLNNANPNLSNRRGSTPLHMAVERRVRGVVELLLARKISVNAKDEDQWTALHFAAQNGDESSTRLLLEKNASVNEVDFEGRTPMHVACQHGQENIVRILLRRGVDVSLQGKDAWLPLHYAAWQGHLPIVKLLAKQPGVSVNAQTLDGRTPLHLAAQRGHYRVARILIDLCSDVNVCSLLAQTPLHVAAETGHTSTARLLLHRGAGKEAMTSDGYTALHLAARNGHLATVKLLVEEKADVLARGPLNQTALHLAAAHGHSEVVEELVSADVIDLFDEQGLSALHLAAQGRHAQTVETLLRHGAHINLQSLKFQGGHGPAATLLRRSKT

IGF1R = IGF1R (Homo sapiens, UniProt P08069)
[1] = target: ABL1 (T315I)-phosphorylated (Homo sapiens, UniProt P00519, T315I)
SGK2 = SGK2 (Homo sapiens, UniProt Q9HBY8)
NLK = target: T1, NLK (Homo sapiens, UniProt Q9UBE8)
T1 construct: T7 phage fusion (said for most assays); made in house

PIM2 = PIM2 (Homo sapiens, UniProt Q9P1W9)
CSNK2A2 = CSNK2A2 (Homo sapiens, UniProt P19784)
MYLK2 = target: T2, MYLK2 (Homo sapiens, UniProt Q9H1R3)
T2 construct: T7 phage fusion (said for most assays); made in house

CSNK1G1 = CSNK1G1 (Homo sapiens, UniProt Q9HCP0)
[2] = target: ABL1 (M351T)-phosphorylated (Homo sapiens, UniProt P00519, M351T)
IKK-alpha = IKK-alpha (Homo sapiens, UniProt O15111)
Sequence of IKK-alpha (O15111 whole entry): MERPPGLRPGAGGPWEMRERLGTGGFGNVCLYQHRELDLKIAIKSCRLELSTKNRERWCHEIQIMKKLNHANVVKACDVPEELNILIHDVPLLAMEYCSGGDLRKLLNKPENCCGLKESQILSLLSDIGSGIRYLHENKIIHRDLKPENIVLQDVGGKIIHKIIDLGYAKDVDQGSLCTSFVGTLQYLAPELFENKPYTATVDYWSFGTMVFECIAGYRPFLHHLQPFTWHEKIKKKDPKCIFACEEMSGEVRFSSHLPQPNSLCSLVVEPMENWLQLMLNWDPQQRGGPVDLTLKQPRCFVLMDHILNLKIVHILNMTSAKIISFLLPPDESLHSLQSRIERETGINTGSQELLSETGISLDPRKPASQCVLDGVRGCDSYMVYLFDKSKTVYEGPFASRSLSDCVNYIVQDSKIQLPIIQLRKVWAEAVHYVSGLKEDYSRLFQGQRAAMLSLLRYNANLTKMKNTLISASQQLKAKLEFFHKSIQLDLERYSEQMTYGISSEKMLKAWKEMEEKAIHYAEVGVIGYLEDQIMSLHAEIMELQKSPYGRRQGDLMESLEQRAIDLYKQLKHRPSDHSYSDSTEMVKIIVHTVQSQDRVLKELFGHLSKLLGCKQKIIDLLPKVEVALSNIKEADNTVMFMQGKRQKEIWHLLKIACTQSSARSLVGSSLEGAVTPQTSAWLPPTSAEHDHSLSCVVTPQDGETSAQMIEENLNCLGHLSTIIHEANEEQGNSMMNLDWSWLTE

MTOR = target: T3, MTOR (Homo sapiens, UniProt P42345)
T3 construct: T7 phage fusion (said for most assays); made in house

PIP5K2C = PIP5K2C (Homo sapiens, UniProt Q8TBX8)
ERK8 = ERK8 (Homo sapiens, UniProt Q8TD08)
FLT3 (D835V) = FLT3 (D835V) (Homo sapiens, UniProt P36888, D835V)
CSNK1E = CSNK1E (Homo sapiens, UniProt P49674)
ACVR2A = ACVR2A (Homo sapiens, UniProt P27037)
DRAK1 = DRAK1 (Homo sapiens, UniProt Q9UEE5)
ABL1-nonphosphorylated = ABL1-nonphosphorylated (Homo sapiens, UniProt P00519)
BIKE = BIKE (Homo sapiens, UniProt Q9NSY1)
NEK1 = target: T4, NEK1 (Homo sapiens, UniProt Q96PY6)
T4 construct: T7 phage fusion (said for most assays); made in house

CDKL2 = CDKL2 (Homo sapiens, UniProt Q92772)
MAP3K3 = MAP3K3 (Homo sapiens, UniProt Q99759)
ROCK1 = ROCK1 (Homo sapiens, UniProt Q13464)
CAMK2A = CAMK2A (Homo sapiens, UniProt Q9UQM7)
WNK3 = WNK3 (Homo sapiens, UniProt Q9BYP7)
MST1 = target: T5, MST1 (Homo sapiens, UniProt Q13043)
T5 construct: T7 phage fusion (stated for most kinases of the panel only); made in house; host or cells: T7 phage in E. coli (BL21-derived) or HEK-293 cells

NEK10 = target: T6, NEK10 (Homo sapiens, UniProt Q6ZWH5)
T6 construct: T7 phage fusion (said for most assays); made in house

TGFBR2 = TGFBR2 (Homo sapiens, UniProt P37173)
LKB1 = LKB1 (Homo sapiens, UniProt Q15831)
MST3 = target: T7, MST3 (Homo sapiens, UniProt Q9Y6E0)
T7 construct: T7 phage fusion (said for most assays); made in house

CSNK2A1 = CSNK2A1 (Homo sapiens, UniProt P68400)

Cc1cc(Oc2cc(NC(=O)C3CC3)ncn2)ccc1NC(=O)Nc1ccc(Cl)c(C(F)(F)F)c1 [CBT-102]
remaining activity at 1 µM (LATS2): 100% | remaining activity at 1 µM (PLK1): 95% | remaining activity at 1 µM (CDK7): 25% | remaining activity at 1 µM (CSNK1G3): 96% | remaining activity at 1 µM (STK33): 63% | remaining activity at 1 µM (AMPK-alpha1): 98% | remaining activity at 1 µM (LRRK2): 73% | remaining activity at 1 µM (ASK2): 94% | remaining activity at 1 µM (RIPK4): 100% | remaining activity at 1 µM (IGF1R): 95% | remaining activity at 1 µM [1]: 51% | remaining activity at 1 µM (SGK2): 92% | remaining activity at 1 µM (NLK): 16% | remaining activity at 1 µM (PIM2): 100% | remaining activity at 1 µM (CSNK2A2): 100% | remaining activity at 1 µM (MYLK2): 98% | remaining activity at 1 µM (CSNK1G1): 100% | remaining activity at 1 µM [2]: 65% | remaining activity at 1 µM (IKK-alpha): 93% | remaining activity at 1 µM (MTOR): 94% | remaining activity at 1 µM (PIP5K2C): 85% | remaining activity at 1 µM (ERK8): 0.6% | remaining activity at 1 µM (FLT3 (D835V)): 95% | remaining activity at 1 µM (CSNK1E): 100% | remaining activity at 1 µM (ACVR2A): 100% | remaining activity at 1 µM (DRAK1): 100% | remaining activity at 1 µM (ABL1-nonphosphorylated): 3.3% | remaining activity at 1 µM (BIKE): 61% | remaining activity at 1 µM (NEK1): 100% | remaining activity at 1 µM (CDKL2): 0.45% | remaining activity at 1 µM (MAP3K3): 95% | remaining activity at 1 µM (ROCK1): 100% | remaining activity at 1 µM (CAMK2A): 88% | remaining activity at 1 µM (WNK3): 100% | remaining activity at 1 µM (MST1): 100% | remaining activity at 1 µM (NEK10): 77% | remaining activity at 1 µM (TGFBR2): 56% | remaining activity at 1 µM (LKB1): 100% | remaining activity at 1 µM (MST3): 89% | remaining activity at 1 µM (CSNK2A1): 100%
